# The source made the active and inactive calls.
# Tests used:
# HeLa = assay: Cytotoxicity counterscreen assay for transcriptional activators of heat shock protein 70 (Hsp70). [Related pubchem assays: 1203, 1252 ]; assay type: functional; conditions: Homo sapiens;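 note: cells exposed to compound for 16 hours before readout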
# [1] = target: Acyl-homoserine lactone acylase PvdQ (Pseudomonas aeruginosa (strain LESB58), UniProt Q9I194); assay: P. aeruginosa PvdQ acylase inhibitors, dose response, biochemical, fluorescence, plate reader and imaging, cherry-picks (AID 493231)
# [2] = target: Scavenger receptor class B member 1 (Mus musculus, UniProt Q61009); assay: inhibitors of SR-BI mediated HDL lipid uptake, dose response, ldlA[mSR-BI] cells, fluorescence, cherry pick (AID 493194); assay type: functional, cell-based;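 note: cellular uptake of fluorescent DiI-labeled HDL measured as cell fluorescence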
# [3] = target: FAD-linked sulfhydryl oxidase ALR (Homo sapiens, UniProt P55789); assay: inhibitors of human ALR sulfhydryl oxidase, dose response, biochemical, H2O2 detection, luminescence, cherry-pick (AID 493248)
# [4] = target: T1, DNA repair and recombination protein RAD54-like (Homo sapiens, UniProt Q92698); assay: inhibitors of human RAD54 branch migration, confirmation, biochemical, fluorescence, cherry-picked samples, dose series (AID 651657); assay type: functional
# T1 sequence (Q92698 whole entry): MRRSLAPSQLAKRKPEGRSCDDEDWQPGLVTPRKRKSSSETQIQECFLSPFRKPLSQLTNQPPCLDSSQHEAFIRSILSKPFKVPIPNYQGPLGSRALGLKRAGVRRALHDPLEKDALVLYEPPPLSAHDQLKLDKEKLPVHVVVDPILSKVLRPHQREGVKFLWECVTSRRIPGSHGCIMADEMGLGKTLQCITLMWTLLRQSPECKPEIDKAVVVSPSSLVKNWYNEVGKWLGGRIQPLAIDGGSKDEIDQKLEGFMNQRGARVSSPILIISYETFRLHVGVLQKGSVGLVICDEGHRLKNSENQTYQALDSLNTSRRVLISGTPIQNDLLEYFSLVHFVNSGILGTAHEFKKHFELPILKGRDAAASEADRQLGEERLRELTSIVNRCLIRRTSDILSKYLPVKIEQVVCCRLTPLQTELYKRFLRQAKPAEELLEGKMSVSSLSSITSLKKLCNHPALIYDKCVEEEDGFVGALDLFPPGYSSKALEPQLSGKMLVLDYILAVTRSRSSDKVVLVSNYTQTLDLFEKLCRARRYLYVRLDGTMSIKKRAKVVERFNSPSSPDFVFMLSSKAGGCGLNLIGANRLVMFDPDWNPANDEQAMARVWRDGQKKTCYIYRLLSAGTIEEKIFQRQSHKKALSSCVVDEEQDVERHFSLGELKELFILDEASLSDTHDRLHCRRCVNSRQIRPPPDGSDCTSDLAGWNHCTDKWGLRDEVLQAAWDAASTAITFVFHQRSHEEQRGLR
# [5] = target: T2, DNA repair protein RAD52 homolog (Homo sapiens, UniProt P43351); assay type: functional, biochemical
# T2 sequence (P43351 whole entry): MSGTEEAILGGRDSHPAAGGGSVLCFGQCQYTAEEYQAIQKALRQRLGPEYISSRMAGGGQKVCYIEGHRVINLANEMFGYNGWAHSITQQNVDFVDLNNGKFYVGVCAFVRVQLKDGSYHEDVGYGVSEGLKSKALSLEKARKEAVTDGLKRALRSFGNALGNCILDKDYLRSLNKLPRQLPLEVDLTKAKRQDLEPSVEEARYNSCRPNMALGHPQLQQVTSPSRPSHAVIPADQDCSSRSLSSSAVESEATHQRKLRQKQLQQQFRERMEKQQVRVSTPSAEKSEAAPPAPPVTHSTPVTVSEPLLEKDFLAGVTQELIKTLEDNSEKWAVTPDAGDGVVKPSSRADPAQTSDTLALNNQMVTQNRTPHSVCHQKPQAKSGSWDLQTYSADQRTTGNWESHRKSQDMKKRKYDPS
# Vero = assay: cells; assay type: functional; conditions: Chlorocebus sabaeus
# [6] = inhibitors of intracellular T. cruzi replication, confirmation, NIH3T3 host cells, beta-gal luminescence (AID 2044); assay type: functional, cell-based;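 note: intracellular parasites grown in NIH/3T3 mouse fibroblasts as host cells; luminescent beta-galactosidase reporter signal from transgenic T. cruzi replicating inside host cells; inhibitors lower the luminescence signal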
# [7] = inhibition of K1F phage lysis, E. coli UTI89, bacterial capsule biogenesis inhibitors, alamar blue (AID 488966); assay type: functional
# [8] = DNA binding of candidate compounds, dose response, artefact control for RAD54 inhibitor project, biochemical, fluorescence polarization, cherry-pick (AID 651673); assay type: functional
# [9] = cytotoxicity toward NIH3T3 fibroblasts, dose response, counter-screen, cell-based, ATP luminescence, mouse fibroblasts (AID 2010); assay type: functional;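 note: cells exposed to compound for about 90 hours before reading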
# [10] = target: T3, Heat shock factor protein 1 (Mus musculus, UniProt P38532); assay: HSF1 potentiators in luciferase reporter cells, confirmation, cell-based, NIH3T3, luminescence, dose retest (AID 435004); assay type: functional;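 note: stress induced by proteasome inhibitor MG132 added 30 min after compound; luciferase reporter driven by HSF1 response element in NIH3T3 cells; actives raise luminescence as potentiators of the MG132 stress response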
# T3 sequence (P38532 whole entry): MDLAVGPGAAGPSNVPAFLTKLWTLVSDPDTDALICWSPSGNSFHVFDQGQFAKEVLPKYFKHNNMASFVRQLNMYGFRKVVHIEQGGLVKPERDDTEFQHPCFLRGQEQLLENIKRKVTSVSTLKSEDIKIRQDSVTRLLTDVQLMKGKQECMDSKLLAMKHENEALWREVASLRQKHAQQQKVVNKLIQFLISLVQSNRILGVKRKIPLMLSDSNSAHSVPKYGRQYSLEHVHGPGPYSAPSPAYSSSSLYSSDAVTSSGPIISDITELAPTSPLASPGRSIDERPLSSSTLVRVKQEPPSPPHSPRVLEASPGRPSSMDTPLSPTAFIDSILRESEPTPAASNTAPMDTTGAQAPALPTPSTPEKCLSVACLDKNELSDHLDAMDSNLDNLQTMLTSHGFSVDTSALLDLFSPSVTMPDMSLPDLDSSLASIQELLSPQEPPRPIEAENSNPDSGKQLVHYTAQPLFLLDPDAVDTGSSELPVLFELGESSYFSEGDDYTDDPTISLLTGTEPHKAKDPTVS
# [11] = target: Acylamino-acid-releasing enzyme (Homo sapiens, UniProt P13798); assay: PME-1 inhibitor potency by in-gel ABPP, dose response, selectivity assay for PME-1 inhibitor project, cell lysate, mouse brain cytosol, FP-rhodamine, panel member APEH Assay Panel member description: Inhibition of N-acylaminoacyl-peptide hydrolase (APEH) (anti-target) (AID 2366)
# ORF 73 = ORF 73 (Human herpesvirus 8, UniProt O40947); assay: inhibitors of C-LANA binding to LBS DNA, dose response, biochemical, fluorescence polarization, cherry-picked samples (AID 504725); parameters: species or system Human gammaherpesvirus 8;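 note: fluorescence polarization of a labeled DNA duplex reporting LANA DNA binding; potency is for inhibitors that block LANA binding to the DNA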
# [12] = target: T4, Carboxy-terminal domain RNA polymerase II polypeptide A small phosphatase 1 (Homo sapiens, UniProt Q9GZU7); assay: inhibitors of CTDSP1, concentration-response testing, biochemical assay, absorbance-based, actives from ultra-high-throughput screening (AID 540297); assay type: functional
# T4 sequence (Q9GZU7 whole entry): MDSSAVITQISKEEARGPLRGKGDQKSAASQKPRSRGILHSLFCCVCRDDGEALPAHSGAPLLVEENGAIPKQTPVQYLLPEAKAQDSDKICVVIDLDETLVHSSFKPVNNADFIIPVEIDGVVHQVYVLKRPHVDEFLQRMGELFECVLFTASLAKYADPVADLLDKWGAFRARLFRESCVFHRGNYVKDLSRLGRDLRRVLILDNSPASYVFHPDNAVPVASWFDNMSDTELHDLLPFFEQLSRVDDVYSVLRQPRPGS
# [13] = target: T5, Histone-lysine N-methyltransferase NSD2 (Homo sapiens, UniProt O96028); assay type: biochemical
# T5 sequence (O96028 whole entry): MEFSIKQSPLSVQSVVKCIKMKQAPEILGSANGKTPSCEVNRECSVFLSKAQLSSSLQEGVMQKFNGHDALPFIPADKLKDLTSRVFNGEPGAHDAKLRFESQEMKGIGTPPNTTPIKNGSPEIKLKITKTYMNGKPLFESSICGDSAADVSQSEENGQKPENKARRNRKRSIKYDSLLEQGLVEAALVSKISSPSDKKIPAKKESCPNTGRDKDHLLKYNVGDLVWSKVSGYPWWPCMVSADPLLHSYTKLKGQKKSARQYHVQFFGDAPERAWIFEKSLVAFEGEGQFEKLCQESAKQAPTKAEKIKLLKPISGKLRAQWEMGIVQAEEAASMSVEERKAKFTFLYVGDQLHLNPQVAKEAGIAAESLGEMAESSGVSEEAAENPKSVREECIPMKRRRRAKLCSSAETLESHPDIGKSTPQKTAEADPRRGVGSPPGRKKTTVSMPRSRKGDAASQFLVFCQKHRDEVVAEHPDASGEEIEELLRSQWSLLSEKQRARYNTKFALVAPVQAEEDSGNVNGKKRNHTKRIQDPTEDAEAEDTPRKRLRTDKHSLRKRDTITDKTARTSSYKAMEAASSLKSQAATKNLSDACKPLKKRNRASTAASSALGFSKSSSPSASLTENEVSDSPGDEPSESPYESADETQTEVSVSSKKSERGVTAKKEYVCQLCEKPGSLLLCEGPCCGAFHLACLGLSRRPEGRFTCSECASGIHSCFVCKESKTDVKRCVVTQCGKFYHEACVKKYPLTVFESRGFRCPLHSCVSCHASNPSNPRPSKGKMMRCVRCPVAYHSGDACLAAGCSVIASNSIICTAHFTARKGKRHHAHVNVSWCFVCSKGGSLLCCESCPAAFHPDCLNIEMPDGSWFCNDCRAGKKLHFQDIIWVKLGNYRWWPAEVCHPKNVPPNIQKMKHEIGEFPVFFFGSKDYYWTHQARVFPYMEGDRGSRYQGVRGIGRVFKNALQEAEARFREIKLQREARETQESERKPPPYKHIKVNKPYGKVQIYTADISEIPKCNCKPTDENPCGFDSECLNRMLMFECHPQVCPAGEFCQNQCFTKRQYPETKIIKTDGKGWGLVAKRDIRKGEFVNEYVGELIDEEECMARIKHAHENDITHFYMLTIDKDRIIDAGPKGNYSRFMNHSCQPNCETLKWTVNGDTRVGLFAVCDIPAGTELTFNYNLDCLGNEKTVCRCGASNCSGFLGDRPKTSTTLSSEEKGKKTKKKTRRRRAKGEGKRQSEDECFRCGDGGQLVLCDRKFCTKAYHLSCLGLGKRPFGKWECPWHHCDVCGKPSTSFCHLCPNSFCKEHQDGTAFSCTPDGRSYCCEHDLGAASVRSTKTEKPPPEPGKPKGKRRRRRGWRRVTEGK
# CAAX prenyl protease 2 = CAAX prenyl protease 2 (Homo sapiens, UniProt Q9Y256); assay: human Rce1 protease inhibitors, dose response, biochemical, yeast membranes, quenched-peptide fluorescence, cherry-pick (AID 588849)
# Trypsin = Trypsin (Sus scrofa, UniProt P00761); assay: porcine trypsin inhibitors, dose response, selectivity assay for Rce1 protease inhibitor project, biochemical, quenched peptide fluorescence, cherry-pick (AID 488789)
# [14] = cytotoxicity in BJeH fibroblasts, dose response, counter-screen for Ras selective lethality project, BJeH cells, dry powder (AID 493054); assay type: functional, cell-based
# [15] = target: Protein phosphatase methylesterase 1 (Homo sapiens, UniProt Q9Y570); assay: PME-1 inhibitor potency by in-gel ABPP, dose response, selectivity assay for PME-1 inhibitor project, cell lysate, mouse brain cytosol, FP-rhodamine, panel member PME-1 Assay Panel member description: Inhibition of endogenously expressed PME-1 (AID 2366)
# [16] = target: T6, Voltage-gated N-type calcium channel alpha-1B subunit/Amyloid beta A4 precursor protein-binding family A member 1 (Homo sapiens, UniProt Q00975+Q02410); assay: disruptors of Mint-PDZ/N-type channel peptide interaction – biochemical, HTRF, set 2, SAR follow-up (AID 434980); assay type: functional
# SUMO E1/E2 = SUMO E1/E2 (Homo sapiens, UniProt P63279+Q9UBE0+Q9UBT2); assay: SAR analysis of SUMOylation using HTRF in an in-Vitro dose response assay. [Related pubchem assays (depositor defined):AID2006, AID2011, AID2018, AID2069, AID2658]; assay type: functional
# [17] = target: T6, Voltage-gated N-type calcium channel alpha-1B subunit/Amyloid beta A4 precursor protein-binding family A member 1; assay: disruptors of Mint-PDZ/N-type channel peptide interaction – biochemical, HTRF, SAR follow-up (AID 2489); assay type: functional
# [18] = target: C-C chemokine receptor type 6 (Homo sapiens, UniProt P51684); assay: CCR6 receptor antagonists, dose response, cell-based, luminescent beta-arrestin readout (AID 504728); assay type: functional
# Beta-galactosidase = Beta-galactosidase (Escherichia coli, UniProt Q8VNN2); assay: beta-galactosidase enzyme inhibitors and activators, dose response, artefact control for CCR6 antagonist project, biochemical, E. coli enzyme, set 3 (AID 504712); assay type: functional
# X-box-binding protein 1 = X-box-binding protein 1 (Homo sapiens, UniProt P17861); assay type: functional, Cricetulus griseus;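 note: confirmatory dose-response counter-screen serving a CHOP assay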
# T6 sequence (Q00975 whole entry): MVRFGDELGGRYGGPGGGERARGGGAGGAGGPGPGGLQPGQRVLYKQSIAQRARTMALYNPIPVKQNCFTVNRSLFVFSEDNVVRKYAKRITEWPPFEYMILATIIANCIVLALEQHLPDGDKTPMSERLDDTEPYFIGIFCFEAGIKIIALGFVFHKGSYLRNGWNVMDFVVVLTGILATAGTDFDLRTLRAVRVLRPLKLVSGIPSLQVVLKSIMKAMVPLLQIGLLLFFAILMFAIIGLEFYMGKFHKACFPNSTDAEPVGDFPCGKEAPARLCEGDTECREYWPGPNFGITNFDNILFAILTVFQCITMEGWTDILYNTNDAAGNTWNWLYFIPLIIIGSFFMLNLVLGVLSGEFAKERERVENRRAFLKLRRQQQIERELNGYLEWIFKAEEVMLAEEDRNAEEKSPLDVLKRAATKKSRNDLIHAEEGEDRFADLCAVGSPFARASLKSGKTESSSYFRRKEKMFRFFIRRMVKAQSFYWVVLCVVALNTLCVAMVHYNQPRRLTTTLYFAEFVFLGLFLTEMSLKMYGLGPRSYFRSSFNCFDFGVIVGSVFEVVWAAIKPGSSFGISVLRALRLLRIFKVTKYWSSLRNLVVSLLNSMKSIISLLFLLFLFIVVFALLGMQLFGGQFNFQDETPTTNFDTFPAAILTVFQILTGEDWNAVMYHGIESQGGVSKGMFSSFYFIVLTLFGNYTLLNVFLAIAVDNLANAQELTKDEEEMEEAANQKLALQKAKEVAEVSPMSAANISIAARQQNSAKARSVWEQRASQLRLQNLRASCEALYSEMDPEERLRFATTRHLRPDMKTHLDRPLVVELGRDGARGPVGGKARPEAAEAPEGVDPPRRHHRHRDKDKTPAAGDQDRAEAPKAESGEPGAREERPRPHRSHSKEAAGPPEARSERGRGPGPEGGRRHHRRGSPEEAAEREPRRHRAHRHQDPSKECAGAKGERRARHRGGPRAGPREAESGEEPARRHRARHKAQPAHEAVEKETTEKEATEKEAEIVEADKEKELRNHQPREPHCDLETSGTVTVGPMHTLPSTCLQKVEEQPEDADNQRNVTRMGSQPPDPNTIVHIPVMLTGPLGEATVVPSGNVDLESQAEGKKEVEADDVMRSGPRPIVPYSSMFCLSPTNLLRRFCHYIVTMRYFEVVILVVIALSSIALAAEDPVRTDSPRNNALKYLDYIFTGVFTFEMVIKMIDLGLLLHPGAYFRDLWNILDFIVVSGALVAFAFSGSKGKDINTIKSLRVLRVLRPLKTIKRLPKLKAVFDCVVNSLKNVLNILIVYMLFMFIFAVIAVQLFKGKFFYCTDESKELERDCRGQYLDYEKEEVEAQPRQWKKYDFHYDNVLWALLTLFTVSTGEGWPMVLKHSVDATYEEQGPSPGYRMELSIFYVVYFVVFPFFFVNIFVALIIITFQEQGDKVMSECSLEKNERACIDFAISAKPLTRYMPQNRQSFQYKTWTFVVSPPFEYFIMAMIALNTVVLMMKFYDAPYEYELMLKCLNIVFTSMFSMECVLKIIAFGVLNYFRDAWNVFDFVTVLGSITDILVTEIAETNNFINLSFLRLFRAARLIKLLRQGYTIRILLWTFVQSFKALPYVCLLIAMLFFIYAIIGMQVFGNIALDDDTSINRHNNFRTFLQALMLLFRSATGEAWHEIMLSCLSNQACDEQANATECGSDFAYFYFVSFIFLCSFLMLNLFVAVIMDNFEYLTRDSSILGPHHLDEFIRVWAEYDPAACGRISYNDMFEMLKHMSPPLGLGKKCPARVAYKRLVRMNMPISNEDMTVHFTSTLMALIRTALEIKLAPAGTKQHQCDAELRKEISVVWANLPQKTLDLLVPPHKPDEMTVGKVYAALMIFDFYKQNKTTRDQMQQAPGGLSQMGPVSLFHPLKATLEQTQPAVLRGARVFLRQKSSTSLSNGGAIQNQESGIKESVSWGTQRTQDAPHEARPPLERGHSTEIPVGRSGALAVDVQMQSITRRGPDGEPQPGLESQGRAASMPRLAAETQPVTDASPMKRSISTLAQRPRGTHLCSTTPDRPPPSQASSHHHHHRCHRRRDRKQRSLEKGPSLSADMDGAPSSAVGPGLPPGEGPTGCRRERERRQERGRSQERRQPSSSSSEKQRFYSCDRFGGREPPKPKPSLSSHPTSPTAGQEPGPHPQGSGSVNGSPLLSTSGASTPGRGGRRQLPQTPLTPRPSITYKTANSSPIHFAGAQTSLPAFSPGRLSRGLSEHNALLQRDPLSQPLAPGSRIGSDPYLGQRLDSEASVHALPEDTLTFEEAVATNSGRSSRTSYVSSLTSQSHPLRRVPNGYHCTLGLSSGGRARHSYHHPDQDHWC
# T6 sequence (Q02410 whole entry): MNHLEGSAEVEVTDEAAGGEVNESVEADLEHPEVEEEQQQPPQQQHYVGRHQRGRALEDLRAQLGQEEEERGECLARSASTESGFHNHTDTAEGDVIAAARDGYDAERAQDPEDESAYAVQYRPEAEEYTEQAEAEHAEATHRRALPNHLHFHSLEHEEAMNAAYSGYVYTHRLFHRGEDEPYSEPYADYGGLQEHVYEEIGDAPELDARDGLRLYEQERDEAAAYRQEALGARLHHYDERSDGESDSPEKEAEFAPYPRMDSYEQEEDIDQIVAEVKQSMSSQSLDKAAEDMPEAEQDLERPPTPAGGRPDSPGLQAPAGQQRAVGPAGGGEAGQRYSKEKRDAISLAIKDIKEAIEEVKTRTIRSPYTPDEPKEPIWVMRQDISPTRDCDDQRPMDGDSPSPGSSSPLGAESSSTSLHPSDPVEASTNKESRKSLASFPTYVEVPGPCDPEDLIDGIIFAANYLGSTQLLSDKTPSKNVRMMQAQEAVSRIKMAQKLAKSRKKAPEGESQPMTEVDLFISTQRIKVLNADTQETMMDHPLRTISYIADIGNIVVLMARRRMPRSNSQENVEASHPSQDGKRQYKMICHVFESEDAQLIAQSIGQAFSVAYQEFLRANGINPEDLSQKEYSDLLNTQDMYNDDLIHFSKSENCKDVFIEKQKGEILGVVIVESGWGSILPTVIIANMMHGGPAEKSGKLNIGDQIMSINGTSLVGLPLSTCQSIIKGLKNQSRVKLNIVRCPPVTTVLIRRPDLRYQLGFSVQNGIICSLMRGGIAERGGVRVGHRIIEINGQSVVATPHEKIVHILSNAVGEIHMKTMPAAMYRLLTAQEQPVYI
# Sequence of CAAX prenyl protease 2 (Q9Y256 whole entry): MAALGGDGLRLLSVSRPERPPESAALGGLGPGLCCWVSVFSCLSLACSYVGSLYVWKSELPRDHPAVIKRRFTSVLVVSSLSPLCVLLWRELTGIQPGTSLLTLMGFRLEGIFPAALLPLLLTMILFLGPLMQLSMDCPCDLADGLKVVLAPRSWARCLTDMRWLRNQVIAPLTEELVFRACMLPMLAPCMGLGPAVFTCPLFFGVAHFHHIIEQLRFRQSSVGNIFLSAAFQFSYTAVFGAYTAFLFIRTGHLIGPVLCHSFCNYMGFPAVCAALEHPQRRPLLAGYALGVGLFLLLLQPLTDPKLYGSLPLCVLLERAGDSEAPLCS
# Sequence of ORF 73 (O40947 whole entry, the tested form may be a part): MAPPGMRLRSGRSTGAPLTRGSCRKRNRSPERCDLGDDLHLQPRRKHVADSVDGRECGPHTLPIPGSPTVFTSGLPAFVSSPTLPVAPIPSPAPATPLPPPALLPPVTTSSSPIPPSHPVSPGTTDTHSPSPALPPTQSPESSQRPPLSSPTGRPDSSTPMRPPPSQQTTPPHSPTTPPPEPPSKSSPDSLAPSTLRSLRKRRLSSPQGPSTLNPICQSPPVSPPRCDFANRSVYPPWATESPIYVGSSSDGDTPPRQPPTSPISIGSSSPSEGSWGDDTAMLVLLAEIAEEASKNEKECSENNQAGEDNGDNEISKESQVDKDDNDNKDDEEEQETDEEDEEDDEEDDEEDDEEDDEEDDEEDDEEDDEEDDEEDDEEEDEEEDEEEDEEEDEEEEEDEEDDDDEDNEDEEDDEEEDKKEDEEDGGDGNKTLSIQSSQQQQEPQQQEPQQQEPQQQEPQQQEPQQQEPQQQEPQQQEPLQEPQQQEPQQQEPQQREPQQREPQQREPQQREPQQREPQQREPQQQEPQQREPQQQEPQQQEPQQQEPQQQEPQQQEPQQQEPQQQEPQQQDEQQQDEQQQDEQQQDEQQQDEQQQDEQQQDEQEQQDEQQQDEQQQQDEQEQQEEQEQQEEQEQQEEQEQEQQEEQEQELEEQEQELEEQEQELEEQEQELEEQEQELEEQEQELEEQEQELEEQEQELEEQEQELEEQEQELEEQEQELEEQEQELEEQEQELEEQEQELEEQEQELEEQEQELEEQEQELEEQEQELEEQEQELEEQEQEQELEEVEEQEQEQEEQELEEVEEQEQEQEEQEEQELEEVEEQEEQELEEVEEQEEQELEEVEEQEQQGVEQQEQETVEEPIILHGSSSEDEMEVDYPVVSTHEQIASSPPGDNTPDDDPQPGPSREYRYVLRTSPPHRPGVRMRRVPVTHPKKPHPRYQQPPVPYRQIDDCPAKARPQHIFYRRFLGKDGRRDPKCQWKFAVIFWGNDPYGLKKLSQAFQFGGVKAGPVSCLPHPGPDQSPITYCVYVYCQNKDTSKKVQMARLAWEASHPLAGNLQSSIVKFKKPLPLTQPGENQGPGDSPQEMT
# Sequence of FAD-linked sulfhydryl oxidase ALR (P55789 whole entry): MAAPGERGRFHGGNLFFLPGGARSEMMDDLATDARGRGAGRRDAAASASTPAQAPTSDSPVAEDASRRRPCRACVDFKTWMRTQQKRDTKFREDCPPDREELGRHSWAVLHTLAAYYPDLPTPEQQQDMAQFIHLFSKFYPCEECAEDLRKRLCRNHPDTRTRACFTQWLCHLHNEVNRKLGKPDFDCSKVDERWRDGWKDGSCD
# Sequence of Trypsin (P00761 whole entry): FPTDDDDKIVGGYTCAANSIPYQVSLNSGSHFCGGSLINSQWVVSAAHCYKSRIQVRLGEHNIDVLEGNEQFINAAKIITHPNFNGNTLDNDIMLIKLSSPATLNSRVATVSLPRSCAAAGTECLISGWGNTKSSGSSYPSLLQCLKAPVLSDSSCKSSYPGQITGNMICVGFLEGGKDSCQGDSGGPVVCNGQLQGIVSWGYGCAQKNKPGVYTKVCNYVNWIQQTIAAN
structure (smiles),measurement,setting,value
CCOC(=O)C1CCN(c2ccc([N+](=O)[O-])cc2)CC1,CC50,HeLa,> 33 µM (not active)
same,AC50,[1],40.5 µM (active)
COc1cc(NC(=O)c2ccco2)c(OC)cc1NC(=O)Nc1ccc(Cl)cc1,AC50,[2],6.53 µM (active)
CN1CCN(c2ccc(Nc3ccnc4cc(Cl)ccc34)cc2)CC1,AC50,[3],5.43 µM (active)
same,AC50,[4],6.94 µM (active)
same,AC50,[5],2.47 µM (active)
same,CC50,Vero,17.1 µM (active)
same,EC50,[6],1.39 µM (active)
same,IC50,[7],> 300 µM (active)
same,AC50,[8],56.1 µM (active)
same,EC50,[9],10.4 µM (active)
same,EC50,[10],> 260 µM (inactive)
CS(=O)(=O)/C(C#N)=C/c1cccn1S(=O)(=O)c1ccccc1,IC50,[11],20 µM (inactive)
O=C(O)COc1ccc2c(c1)O/C(=C\c1ccco1)C2=O,AC50,ORF 73,157 µM (active)
same,IC50,[12],3.74 µM (active)
same,AC50,[13],> 20 µM (inactive)
CCOP(=O)(c1ccccc1)c1nc(-c2ccccc2Cl)oc1N1CCCCC1 (stereo unspecified),AC50,CAAX prenyl protease 2,5.21 µM (active)
same,AC50,Trypsin,4.67 µM (active)
COc1ccc(N(C(=O)CSc2ncccn2)C(C(=O)NCCc2ccccc2)c2cccs2)cc1Cl (stereo unspecified),AC50,[14],> 381 µM (inactive)
CS(=O)(=O)/C(C#N)=C/c1cccn1S(=O)(=O)c1ccc([N+](=O)[O-])cc1[N+](=O)[O-],IC50,[15],> 20 µM (inactive)
COC(=O)c1ccc(CNC(=O)COC(=O)c2cc(-c3ccco3)nc3ccccc23)cc1,IC50,[16],6.74 µM (active)
same,IC50,SUMO E1/E2,2.23 µM (active)
same,IC50,[17],19.2 µM (active)
COC(=O)N/N=C/c1cc(N=Nc2ccccc2Cl)ccc1O,IC50,[18],> 66.6 µM (inactive)
same,IC50,Beta-galactosidase,> 66.6 µM (inactive)
O=C(CNc1cccc(C(F)(F)F)c1)N/N=C/c1cccc(Br)c1,Absolute IC50 (XBP1),X-box-binding protein 1,10 µM

# — ChEMBL document CHEMBL1201862, “PubChem BioAssay data set” (2004)
